Measurements published in patent US20260215418A1, “HYDROCARBON ALCOHOLS AND THEIR DERIVATIVES AS SYNERGISTS IN PESTICIDE ACTIVITY” (priority 2022, published 2026).
Read-outs that look alike come from different tables or passages of the source.

Legend:
Blatta orientalis = conditions: for synergizing effect on Cypermethrin / Mortality %/time (h) (application): Blatta orientalis; for synergizing effect on Cypermethrin: synergist applied with Cypermethrin; for Mortality %: insects on treated tile; for Mortality %/time (h) (application): Table 37, concentrations in mg/ml in label
Procedure: Method: Contact test on non-porous tile measuring 400 cm^2 at a temperature of 28° C. Test duration: up to 72 hours after exposure of the insect to the insecticidal active substance.
(§1) Three tests were performed in parallel, A, B, and C, as follows: • A) Comparative. 1 ml of Composition 2 was applied to the tile. After waiting for the complete evaporation of the solvent, 10 cockroaches were placed on top of the treated tile, starting the test. • B) According to the invention. 1 ml of Composition 8b was distributed on the tile. After waiting for the complete evaporation of the solvent, 1 ml of Composition 2 was added to the same tile. Subsequently, after waiting for the solvent to evaporate, 10 cockroaches were placed on top of the treated tile, starting the test. • C) According to the invention. 1 ml of Composition 8b was distributed on a tile. After waiting for the complete evaporation of the solvent, 10 cockroaches were placed for 30 minutes on top of the treated tile. At the end of the 30 minutes, the cockroaches were transferred to an untreated area.
Method: Contact test on non-porous tile measuring 400 cm^2 at a temperature of 28° C. Test duration: up to 120 hours after exposure of the insect to the insecticidal active substance.
as §1, with “4a” for “2”, “8d” for “8b”, “After” for “Subsequently, after”
Six tests were performed in parallel, A, B, C, D, E and F, as follows: • A) Comparative. 1 ml of Composition 9b was distributed on the tile. After waiting for the complete evaporation of the solvent, 1 ml of Composition 4a was added to the same tile. Subsequently, after waiting for the solvent to evaporate, 10 cockroaches were placed on top of the treated tile, starting the test. • B) Comparative. 1 ml of Composition 9b was distributed on a tile. After waiting for the complete evaporation of the solvent, 10 cockroaches were placed for 30 minutes on top of the treated tile. At the end of the 30 minutes, the cockroaches were transferred to an untreated area. […] 1 ml of Composition 10b was distributed on the tile. After waiting for the complete evaporation of the solvent, 1 ml of Composition 4a was added to the same tile. Subsequently, after waiting for the solvent to evaporate, 10 cockroaches were placed on top of the treated tile, starting the test. • D) Comparative. 1 ml of Composition 10b was distributed on a tile. After waiting for the complete evaporation of the solvent, 10 cockroaches were placed for 30 minutes on top of the treated tile. At the end of the 30 minutes, the cockroaches were transferred to an untreated area. […] 1 ml of Composition 8d was distributed on the tile. After waiting for the complete evaporation of the solvent, 1 ml of Composition 4a was added to the same tile. Subsequently, after waiting for the solvent to evaporate, 10 cockroaches were placed on top of the treated tile, starting the test. • F) According to the invention. 1 ml of Composition 8d was distributed on a tile. After waiting for the complete evaporation of the solvent, 10 cockroaches were placed for 30 minutes on top of the treated tile. At the end of the 30 minutes, the cockroaches were transferred to an untreated area.

Musca domestica L. = assay: Contact test on non-porous tile, Musca domestica; assay type: in vivo; conditions: for synergizing effect on Cypermethrin: Musca domestica L., synergist applied with Cypermethrin; for mortality at 680 µg/mL: Musca domestica, single substance alone, 0.68 mg/ml, 48 h, read-out: Mortality %/time (h)
Procedure: 1 ml of Composition 1 was applied to the tile. […] 1 ml of Composition 8a was distributed on the tile. […] 1 ml of Composition 8a was distributed on a tile. […] At the end of the 30 minutes, the flies were transferred to an untreated area.
1 ml of Composition 3 was applied to the tile. […] 1 ml of Composition 8c was distributed on the tile. […] 1 ml of Composition 8c was distributed on a tile. […] At the end of the 30 minutes, the flies were transferred to an untreated area.
1 ml of Composition 9a was distributed on the tile. […] 1 ml of Composition 9a was distributed on a tile. […] At the end of the 30 minutes, the flies were transferred to an untreated area. […] 1 ml of Composition 10a was distributed on the tile. […] 1 ml of Composition 10a was distributed on a tile. […] At the end of the 30 minutes, the flies were transferred to an untreated area. […] 1 ml of Composition 8c was distributed on the tile. […] 1 ml of Composition 8c was distributed on a tile. […] At the end of the 30 minutes, the flies were transferred to an untreated area.
1 ml of Composition 5a, was distributed on the tile. […] 1 ml of Composition 6a was distributed on the tile. […] 1 ml of Composition 7a was distributed on the tile.
1 ml of Composition 3 was distributed on the tile. […] 1 ml of Composition 9a was distributed on the tile. […] 1 ml of Composition 11a was distributed on a tile. […] 1 ml of Composition 12a was distributed on a tile.
1 ml of Composition 3 was distributed on the tile. […] 1 ml of Composition 17a was distributed on a tile. […] 1 ml of Composition 18a was distributed on a tile. […] Each experiment (A-C) was conducted in duplicate.
1 ml of Composition 23a was distributed on the tile. […] 1 ml of Composition 20a was distributed on a tile. […] Each experiment (A-B) was conducted in duplicate.
1 ml of Composition 3 was distributed on the tile. […] 1 ml of Composition 25a was distributed on a tile. […] Each experiment (A-B) was conducted in duplicate.
1 ml of Composition 23a was distributed on the tile. […] 1 ml of Composition 27a was distributed on a tile. […] Each experiment (A-B) was conducted in duplicate.
1 ml of Composition 26a was distributed on a tile. […] 1 ml of Composition 26b was distributed on a tile. […] 1 ml of Composition 26c was distributed on a tile.
1 ml of Composition 22a was distributed on a tile. […] 1 ml of Composition 22b was distributed on a tile. […] 1 ml of Composition 22c was distributed on a tile.
1 ml of Composition 23a was distributed on the tile. […] 1 ml of Composition 44a was distributed on a tile.
1 ml of Composition 33 was distributed on a tile. […] 1 ml of Composition 33 was distributed on a tile. […] At the end of the 30 minutes, the flies were transferred to an untreated area.
1 ml of Composition 1 was distributed on the tile. […] 1 ml of Composition 34 was distributed on a tile. […] 1 ml of Composition 34 was distributed on a tile. […] At the end of the 30 minutes, the flies were transferred to an untreated area.
1 ml of Composition 3 was distributed on the tile. […] 1 ml of Composition 31a was distributed on a tile. […] 1 ml of Composition 31b was distributed on a tile. […] 1 ml of Composition 31b was distributed on a tile. […] At the end of the 30 minutes, the flies were transferred to an untreated area. […] 1 ml of Composition 38a was distributed on a tile. […] 1 ml of Composition 38a was distributed on a tile. […] At the end of the 30 minutes, the flies were transferred to an untreated area.
G) According to the invention. 1 ml of Composition 40a was distributed on a tile. […] Subsequently, after waiting for the solvent to evaporate, 10 flies were placed on top of the treated til

Blatta lateralis = assay: Contact test on non-porous tile, Blatta lateralis; assay type: in vivo; parameters: Mortality %: concentration or dose not given beside the values; conditions: for Mortality %: 25° C, insects on treated tile; for Mortality %/time (h) (application): Table 37, Blatta lateralis, concentrations in mg/ml in label
Procedure: 1 ml of Composition 24 was distributed on the tile. […] 1 ml of Composition 20c was distributed on a tile. […] 1 ml of Composition 20d was distributed on a tile.
1 ml of Composition 24 was distributed on the tile. […] 1 ml of Composition 28 was distributed on a tile. […] Each experiment (A-B) was conducted in duplicate.
1 ml of Composition 24 was distributed on the tile. […] 1 ml of Composition 21 was distributed on a tile.
1 ml of Composition 4b was distributed on the tile. […] 1 ml of Composition 31c was distributed on a tile. […] 1 ml of Composition 31d was distributed on a tile. […] 1 ml of Composition 31d was distributed on a tile.
1 ml of Composition 24 was distributed on the tile. […] 1 ml of Composition 35 was distributed on a tile. […] 1 ml of Composition 40b was distributed on a tile. […] 1 ml of Composition 42 was distributed on a tile.

Question: What does the source list for `CCCCCCCCCCC(CO)CCCCCCCC` (centres unmarked) [2-octyldodecanol]?
Answer: synergizing effect on Cypermethrin (Blatta orientalis): superior to that shown with PBO; synergizing effect on Cypermethrin (Musca domestica L.): synergistic effect, comparable to the activity shown by PBO; mortality at 680 µg/mL (Musca domestica L.): 20%

Question: `CC1(C)C(C=C(Cl)Cl)C1C(=O)OC(C#N)c1cccc(Oc2ccccc2)c1` (centres unmarked) [Composition 4b, Cypermethrin] was tested. Which Mortality % (Blatta lateralis; Example 31, 24 h) did it give?
Answer: The Mortality % was 0%.

Question: And the Mortality % (Blatta lateralis; Example 31, 48 h)?
Answer: The Mortality % was 40%.

Question: And the “Mortality %/time (h) (application)” value (Blatta lateralis; 48 h)?
Answer: Its value is 40/48 ^ %.

Question: Which Mortality % (Blatta orientalis; Example 15, 21° C, 24 h) does the source give for `COP(=O)(OC)SCn1c(=O)oc2cc(Cl)cnc21` [Composition 23b, Azamethiphos] here?
Answer: The Mortality % was 10%.

Question: What about the Mortality % (Blatta orientalis; Example 15, 21° C, 48 h) of the same compound?
Answer: Its Mortality % is 17%.

Question: And the Mortality % (Blatta orientalis; Example 15, 21° C, 72 h)?
Answer: Its Mortality % is 23%.

Question: And the Mortality % (Blatta orientalis; Example 21, 25° C, 48 h)?
Answer: Its Mortality % is 17%.

Question: What about the Mortality % (Blatta orientalis; Example 25, 21° C, 24 h) of the same compound?
Answer: The Mortality % was 10%.

Question: What about the Mortality % (Blatta orientalis; Example 25, 21° C, 48 h) of the same compound?
Answer: The Mortality % was 17%.

Question: What about the Mortality % (Blatta orientalis; Example 25, 21° C, 72 h) of the same compound?
Answer: The Mortality % was 23%.

Question: What about the “Mortality %/time (h) (application)” value (Blatta orientalis; 48 h) of the same compound?
Answer: The value was 17/48 ^ %.

Question: With `O=[N+]([O-])NC1=NCCN1Cc1ccc(Cl)nc1` [Composition 24, Imidacloprid] as the compound, how does the Mortality % (Blatta lateralis; Example 16, 48 h) read?
Answer: The Mortality % was 20%.

Question: What about the Mortality % (Blatta lateralis; Example 22, 48 h) of the same compound?
Answer: Its Mortality % is 20%.

Question: And the Mortality % (Blatta lateralis; Example 26, 48 h)?
Answer: Its Mortality % is 20%.

Question: And the Mortality % (Blatta lateralis; Example 33, 48 h)?
Answer: The Mortality % was 20%.

Question: What about the “Mortality %/time (h) (application)” value (Blatta lateralis; 48 h) of the same compound?
Answer: The value was 20/48 ^ %.

Question: Which “Mortality %/time (h) (application)” value (Blatta orientalis; 48 h) does the source give for `CCCCCCCC/C=C\CCCCCCCCOC(C)=O` [Composition 25b, Oleyl acetate] here?
Answer: Its value is 0/48 ^ %.

Question: With `CCCCC(O)CO` (centres unmarked) [Composition 31c, 1,2-hexandiol] as the compound, how does the “Mortality %/time (h) (application)” value (Blatta lateralis; 48 h, listed as 1,2-hexandiol (0.05)) read?
Answer: The value was 14/48 ^ %.

Question: `CCCCC(O)CO` (centres unmarked) [Composition 31d, 1,2-hexandiol] was tested. Which “Mortality %/time (h) (application)” value (Blatta lateralis; 48 h, listed as 1,2-hexandiol (0.07)) did it give?
Answer: The value was 20/48 ^ %.

Question: `CC1(C)C(C=C(Cl)Cl)C1C(=O)OC(C#N)c1cccc(Oc2ccccc2)c1` (centres unmarked) [Composition 46b, Cypermethrin] was tested. Which Mortality % (Blatta orientalis; Example 36, 25° C, 24 h) did it give?
Answer: Its Mortality % is 8%.

Question: What about the Mortality % (Blatta orientalis; Example 36, 25° C, 48 h) of the same compound?
Answer: The Mortality % was 17%.

Question: What about the “Mortality %/time (h) (application)” value (Blatta orientalis; 48 h, listed as Cypermethrin (0.10)) of the same compound?
Answer: The value was 17/48 ^ %.

Question: For `CCCCC(CC)COC(=O)OCC(CC)CCCC` (centres unmarked) [bis(2-ethylhexyl)-carbonate], which “synergizing effect on Cypermethrin” value (Blatta orientalis) is on record?
Answer: Its value is “synergizing effect”.

Question: And the “synergizing effect on Cypermethrin” value (Musca domestica L.)?
Answer: Its value is “high synergizing effect”.

Question: What about the mortality at 680 µg/mL (Musca domestica L.) of the same compound?
Answer: The mortality at 680 µg/mL was 19%.

Question: Which “synergizing effect on Cypermethrin” value (Blatta orientalis) does the source give for `CCCCCCCCCCCCOC(C)=O` [dodecyl acetate] here?
Answer: Its value is “excellent-fine synergizing effect”.

Question: With `CCCCCCCCOC(C)=O` [n-Octyl acetate] as the compound, how does the “synergizing effect on Cypermethrin” value (Blatta orientalis) read?
Answer: The value was “excellent-fine synergizing effect”.

Question: How did the “Mortality %/time (h) (application)” value (Blatta orientalis; 48 h) turn out when Alcohol oleic [Composition 20b] was run?
Answer: Its value is 0/48 ^ %.

Question: For oleic alcohol [Composition 8b], which “Mortality %/time (h) (application)” value (Blatta orientalis; 48 h) is on record?
Answer: Its value is 0/48 ^ %.
